Tests used:
[1] = tested on: human melanoma metastases in visceral organs; test: Metastatic disease burden by total bioluminescence signal from visceral organs; format: in vivo, NSG mice
Text: (§1) Melanoma specimens were obtained with informed consent from all patients according to protocols approved by the Institutional Review Boards of the University of Michigan Medical School (IRBMED approvals HUM00050754 and HUM00050085 (Quintana et al., 2012) and the University of Texas Southwestern Medical Center. Unless otherwise indicated, patient-derived xenografts were established by subcutaneously injecting 100 freshly dissociated melanoma cells into the right flanks of NOD/SCID IL2Rγ^null (NSG) mice in 25% high-protein Matrigel, or by injecting intravenously or intrasplenically, depending on the experiment. The subcutaneous tumors were measured every 10 days until any tumor in the mouse cohort reached 2.5 cm in its largest diameter. Mice were monitored daily for signs of distress and euthanized according to a standard body condition score or when their tumors reached 2.5 cm in largest diameter, whichever came first. […] After intravenous and intrasplenic injections mice were imaged every month until the bioluminescence signal was saturated, then mice were euthanized and organs were analyzed visually and by bioluminescence imaging for the presence of micro and macrometastases. […] Reporters of mitochondrial mass, mitochondrial membrane potential, and ROS were used to stain equal numbers of dissociated melanoma cells and analyzed by flow cytometry. […]

[2] = tested on: human melanoma cells (M405, M481, UT10) transplanted subcutaneously; test: Growth of primary subcutaneous tumors of patient-derived melanoma xenografts in NSG mice; format: in vivo
Text: as §1

[3] = tested on: circulating human melanoma cells; test: Frequency of circulating melanoma cells in the blood by flow cytometry; format: in vivo, NSG mice
Text: as §1

melanoma = details: at 5 years; 2011 meta-analysis; adjuvant treatment of melanoma; cited from earlier work

In the case of `CN(Cc1cnc2nc(N)nc(N)c2n1)c1ccc(C(=O)N[C@@H](CCC(=O)O)C(=O)O)cc1` [Methotrexate], the metastatic disease burden ([1]; methotrexate 1.25 mg/kg/day with thymidine and hypoxanthine, M405, M481, UT10, FIG. 5D) is reported as “significantly reduced”, the “growth of primary subcutaneous tumors” value ([2]; low dose methotrexate 1.25 mg/kg/day with thymidine and hypoxanthine, M405, M481, UT10, vs DMSO control, FIG. 5B) is reported as “no significant effect” and the “frequency of circulating melanoma cells in the blood” value ([3]; methotrexate 1.25 mg/kg/day with thymidine and hypoxanthine, M405, M481, UT10, FIG. 5C) is reported as “significantly reduced”.
With `CC(=O)N[C@@H](CS)C(=O)O` [NAC, N-acetyl-cysteine] the metastatic disease burden ([1]; NAC 200 mg/kg/day s.c., mice transplanted with M405 and M481, FIG. 4C) was “significantly increased”, the “growth of primary subcutaneous tumors” value ([2]; NAC 200 mg/kg/day, daily subcutaneous injection, melanomas M405, M481, UT10, vs PBS, FIG. 4A) was “In no case did NAC treatment significantly affect” and the “frequency of melanoma cells in the blood” value ([3]; NAC 200 mg/kg/day s.c., mice transplanted with M405 and UT10, FIG. 4B) was “significantly increased”.
In the case of interferon, the increase in survival (melanoma) is listed as 3%.

— US20180312844A1, “TREATMENT FOR CANCER METASTASIS” (The Board of Regents of the UIniversity of Texas System, priority 2015, published 2018)
